In ChEMBL document CHEMBL3102725, “Trichodermone, a spiro-cytochalasan with a tetracyclic nucleus (7/5/6/5) skeleton from the plant endophytic fungus Trichoderma gamsii” (J Nat Prod, 2014) one finds IC50 data, which are given here for 2 compounds.

This assay relates to HeLa. The assay is described as follows: Cytotoxicity against human HeLa cells by MTT assay. In kind it is functional, cell-based. For orientation: Tetrazolium dyes change colour on reduction, which living cells bring about.

The compound `CC1=C[C@@H]2/C=C(\C)CC[C@H](O)[C@H](O)/C=C/C(=O)[C@]23C(=O)N[C@@H](CC(C)C)[C@@H]3[C@@H]1C` [ASPOCHALASIN D] came in with a half-maximal inhibitory concentration (IC50) of 5720 nM.

`CC(=O)O[C@H]1C(=O)[C@@]2(C)[C@H]([C@H](OC(=O)c3ccccc3)[C@]3(O)C[C@H](OC(=O)[C@H](O)[C@@H](NC(=O)c4ccccc4)c4ccccc4)C(C)=C1C3(C)C)[C@]1(OC(C)=O)CO[C@@H]1C[C@@H]2O` [PACLITAXEL] showed an IC50 of 2.5 nM.

The IC50 is the concentration needed to halve the response being measured.
